In US9783505B2, “Substituted diaminopyrimidyl compounds, compositions thereof, and methods of treatment therewith” (Signal Pharmaceuticals, LLC, priority 2013, dated 2017):

Experiments:
His-PKC-theta = target: T1, His-PKC-theta (Homo sapiens, UniProt Q04759); assay: PKC-theta Assay (384-well time resolved fluorescence, IMAP TR-FRET); type: biochemical; conditions: read-out: Act. Level (IC50 in the PKC-theta Assay)
T1 construct: His; purchased Invitrogen
In short: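 Fam-labeled S6-derived peptide (200 nM) and 10 μM ATP were reacted with 142 pM enzyme for 2 h at room temperature in HEPES pH 7.6 buffer with MgCl2, DTT, Triton X-100, BSA and EDTA. The reaction was stopped with IMAP progressive binding reagent plus Tb donor, incubated overnight, then TR-FRET read.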

PKC delta = target: T2, PKC delta (Homo sapiens, UniProt Q05655); assay: PKC delta Assay (384-well time resolved fluorescence, IMAP TR-FRET); type: biochemical; conditions: selectivity for PKC-theta over PKC-delta
T2 construct: purchased Invitrogen
T2 sequence (Q05655 whole entry): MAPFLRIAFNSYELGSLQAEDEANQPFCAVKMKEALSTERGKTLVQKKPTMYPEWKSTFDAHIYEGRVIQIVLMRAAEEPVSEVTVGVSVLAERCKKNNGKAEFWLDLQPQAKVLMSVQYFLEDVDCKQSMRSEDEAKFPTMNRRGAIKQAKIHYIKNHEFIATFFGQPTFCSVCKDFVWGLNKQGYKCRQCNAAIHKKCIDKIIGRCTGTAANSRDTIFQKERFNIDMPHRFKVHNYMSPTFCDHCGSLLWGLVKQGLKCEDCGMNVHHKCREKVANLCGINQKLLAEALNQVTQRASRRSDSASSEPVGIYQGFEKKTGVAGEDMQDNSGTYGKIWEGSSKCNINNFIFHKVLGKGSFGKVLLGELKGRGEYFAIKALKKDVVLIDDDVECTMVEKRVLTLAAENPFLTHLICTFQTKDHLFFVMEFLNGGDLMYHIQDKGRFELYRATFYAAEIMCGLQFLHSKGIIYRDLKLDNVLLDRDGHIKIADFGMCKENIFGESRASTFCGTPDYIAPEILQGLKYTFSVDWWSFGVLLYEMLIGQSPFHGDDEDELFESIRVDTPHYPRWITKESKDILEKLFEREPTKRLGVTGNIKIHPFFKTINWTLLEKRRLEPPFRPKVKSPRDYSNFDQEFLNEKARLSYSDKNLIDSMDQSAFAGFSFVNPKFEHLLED
Experimental: PKC delta Assay. A 384-well time resolved fluorescence assay was used to monitor PKC delta activity. The PKC delta assay was run in the following assay buffer: 50 mM HEPES pH 7.6, 10 mM MgCl2, 1 mM DTT, 0.01% Triton X-100, 0.01% BSA and 0.1 mM EDTA. To initiate the reaction, 200 nM of Fam-labeled S6-derived peptide (Molecular Devices) and 10 μM of ATP were mixed with 1.5 nM of PKC delta (Invitrogen), for a total assay volume of 25 μL in each well. The assay was incubated at room temperature for 2 hours and terminated using a 60 μL/well mixture of Detection Binding Solution: 70% IMAP Progressive Binding Buffer A, 30% IMAP Progressive Binding Buffer B, 1:600 Progressive Binding Reagent, and 1:400 TR-FRET Tb Donor (Molecular Devices). The assay plates were then incubated overnight at room temperature and read on the Perkin-Elmer Envision Reader.

T1 sequence (Q04759 whole entry): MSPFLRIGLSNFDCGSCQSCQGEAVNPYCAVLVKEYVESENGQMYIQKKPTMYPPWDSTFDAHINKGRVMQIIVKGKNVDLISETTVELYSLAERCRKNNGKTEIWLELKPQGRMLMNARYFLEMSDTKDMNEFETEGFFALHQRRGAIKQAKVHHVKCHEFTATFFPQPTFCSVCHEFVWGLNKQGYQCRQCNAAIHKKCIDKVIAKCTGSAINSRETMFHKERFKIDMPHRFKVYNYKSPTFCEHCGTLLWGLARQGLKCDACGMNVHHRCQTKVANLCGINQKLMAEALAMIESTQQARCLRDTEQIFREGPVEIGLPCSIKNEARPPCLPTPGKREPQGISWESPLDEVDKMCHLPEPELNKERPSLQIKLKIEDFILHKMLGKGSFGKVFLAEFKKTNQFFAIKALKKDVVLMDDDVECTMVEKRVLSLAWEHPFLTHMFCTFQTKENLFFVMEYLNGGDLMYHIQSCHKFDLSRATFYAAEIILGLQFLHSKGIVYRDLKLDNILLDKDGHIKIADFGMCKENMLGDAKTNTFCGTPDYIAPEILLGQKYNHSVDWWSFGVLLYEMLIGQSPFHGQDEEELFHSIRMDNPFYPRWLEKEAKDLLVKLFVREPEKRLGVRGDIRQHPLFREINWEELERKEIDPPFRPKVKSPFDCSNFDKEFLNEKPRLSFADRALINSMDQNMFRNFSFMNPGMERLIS

| Compound | IC50 (His-PKC-theta) [µM] | Sel. Level (ratio of IC50 PKC-delta/IC50 PKC-theta) (PKC delta) |
| --- | --- | --- |
| CC1(C)C[C@H](Nc2nc(NCCc3cccc4cc[nH]c34)ncc2C#N)CCC1O (stereo partly drawn) [Cmpd 217] | 0.1 to 0.8 | G (selectivity between 5- and 20-fold (selectivity level G)) |
| CC1(C)C[C@H](Nc2nc(NCCc3cnc(C4CC4)nc3)ncc2C#N)CC[C@@H]1O [Cmpd 218] | 2 to 10 | H (selectivity level of 5-fold or less (selectivity level H)) |
| CC1(C)C[C@H](Nc2nc(NCCc3noc(C(F)(F)F)n3)ncc2C#N)CC[C@@H]1O [Cmpd 219] | 0.8 to 2 | G (selectivity between 5- and 20-fold (selectivity level G)) |
| CC1(C)C[C@H](Nc2nc(NCCc3ccon3)ncc2C#N)CC[C@@H]1O [Cmpd 220] | 0.8 to 2 | G (selectivity between 5- and 20-fold (selectivity level G)) |
| CC1(C)C[C@H](Nc2nc(NCCn3ccnc3)ncc2C#N)CC[C@@H]1O [Cmpd 221] | 2 to 10 | H (selectivity level of 5-fold or less (selectivity level H)) |
| CC1(C)C[C@H](Nc2nc(NCCc3cnoc3)ncc2C#N)CC[C@@H]1O [Cmpd 222] | 0.8 to 2 | G (selectivity between 5- and 20-fold (selectivity level G)) |
| CC1(C)C[C@H](Nc2nc(NCCn3cncn3)ncc2C#N)CC[C@@H]1O [Cmpd 223] | 2 to 10 | H (selectivity level of 5-fold or less (selectivity level H)) |
| Cc1cccnc1CCNc1ncc(C#N)c(NC2C[C@H](O)C2(C)C)n1 (stereo partly drawn) [Cmpd 224] | 2 to 10 | H (selectivity level of 5-fold or less (selectivity level H)) |
| Cc1cc(C(F)(F)F)nn1CCNc1ncc(C#N)c(N[C@@H]2CC(O)C2(C)C)n1 (stereo partly drawn) [Cmpd 225] | 2 to 10 | H (selectivity level of 5-fold or less (selectivity level H)) |
| CC1(C)C(O)C[C@H]1Nc1nc(NCCc2cnccn2)ncc1C#N (stereo partly drawn) [Cmpd 226] | 2 to 10 | H (selectivity level of 5-fold or less (selectivity level H)) |
| COc1cccc(CCNc2ncc(C#N)c(N[C@@H]3CC(O)C3(C)C)n2)n1 (stereo partly drawn) [Cmpd 227] | 0.8 to 2 | G (selectivity between 5- and 20-fold (selectivity level G)) |
| CC1(C)[C@@H](O)C[C@H]1Nc1nc(NCCc2ccon2)ncc1C#N [Cmpd 228] | 0.8 to 2 | G (selectivity between 5- and 20-fold (selectivity level G)) |
| CC1(C)[C@@H](O)C[C@H]1Nc1nc(NCCc2cccc3cc[nH]c23)ncc1C#N [Cmpd 229] | 0.8 to 2 | G (selectivity between 5- and 20-fold (selectivity level G)) |
| CC1(C)[C@@H](O)C[C@H]1Nc1nc(NCCc2ncon2)ncc1C#N [Cmpd 230] | 2 to 10 | H (selectivity level of 5-fold or less (selectivity level H)) |
| CC1(C)C(O)C[C@H]1Nc1nc(NCCc2cccnc2)ncc1C#N (stereo partly drawn) [Cmpd 231] | 0.8 to 2 | G (selectivity between 5- and 20-fold (selectivity level G)) |
| Cc1ccc(CCNc2ncc(C#N)c(N[C@@H]3CC(O)C3(C)C)n2)o1 (stereo partly drawn) [Cmpd 232] | 0.1 to 0.8 | F (selectivity of between 20- and 100-fold (selectivity level F)) |
| Cc1nc(CCNc2ncc(C#N)c(N[C@@H]3CC(O)C3(C)C)n2)no1 (stereo partly drawn) [Cmpd 233] | 2 to 10 | H (selectivity level of 5-fold or less (selectivity level H)) |
| CC1(C)[C@@H](O)C[C@H]1Nc1nc(NCCc2ccco2)ncc1C#N [Cmpd 234] | 0.8 to 2 | G (selectivity between 5- and 20-fold (selectivity level G)) |
| Cc1ccc(CCNc2ncc(C#N)c(N[C@@H]3C[C@H](O)C3(C)C)n2)cn1 [Cmpd 235] | 2 to 10 | H (selectivity level of 5-fold or less (selectivity level H)) |
| COCc1noc(CCNc2ncc(C#N)c(N[C@@H]3CC(O)C3(C)C)n2)n1 (stereo partly drawn) [Cmpd 236] | 2 to 10 | H (selectivity level of 5-fold or less (selectivity level H)) |
| CC1(C)[C@@H](O)C[C@H]1Nc1nc(NCCc2cc3ccccc3[nH]2)ncc1C#N [Cmpd 237] | 0.8 to 2 | G (selectivity between 5- and 20-fold (selectivity level G)) |

| Compound | IC50 (His-PKC-theta) [µM] | Sel. Level (ratio of IC50 PKC-delta/IC50 PKC-theta) (PKC delta) |
| --- | --- | --- |
| CC1(C)[C@@H](O)C[C@H]1Nc1nc(NCCn2cccc2)ncc1C#N [Cmpd 238] | 0.1 to 0.8 | G (selectivity between 5- and 20-fold (selectivity level G)) |
| CC1(C)[C@@H](O)C[C@H]1Nc1nc(NCCn2ccc3ccccc32)ncc1C#N [Cmpd 239] | 2 to 10 | H (selectivity level of 5-fold or less (selectivity level H)) |
| CC1(C)[C@@H](O)C[C@H]1Nc1nc(NCCc2c[nH]c3ccccc23)ncc1C#N [Cmpd 240] | < 0.1 | G (selectivity between 5- and 20-fold (selectivity level G)) |
| CC1(C)[C@@H](O)C[C@H]1Nc1nc(NCCc2c[nH]c3ncccc23)ncc1C#N [Cmpd 241] | 0.8 to 2 | G (selectivity between 5- and 20-fold (selectivity level G)) |
| CC1(C)[C@@H](O)C[C@H]1Nc1nc(NCCc2nc3ccccc3o2)ncc1C#N [Cmpd 242] | 2 to 10 | H (selectivity level of 5-fold or less (selectivity level H)) |
| Cc1cc2ccccc2n1CCNc1ncc(C#N)c(N[C@@H]2C[C@H](O)C2(C)C)n1 [Cmpd 243] | 0.8 to 2 | G (selectivity between 5- and 20-fold (selectivity level G)) |
| CC1(C)[C@@H](O)C[C@H]1Nc1nc(NCCc2cn[nH]c2)ncc1C#N [Cmpd 244] | 0.1 to 0.8 | G (selectivity between 5- and 20-fold (selectivity level G)) |
| CC1(C)[C@@H](O)C[C@H]1Nc1nc(NCCc2ccn[nH]2)ncc1C#N [Cmpd 245] | 0.8 to 2 | G (selectivity between 5- and 20-fold (selectivity level G)) |
| CC1(C)[C@@H](O)C[C@H]1Nc1nc(NCCc2cnoc2)ncc1C#N [Cmpd 246] | 2 to 10 | H (selectivity level of 5-fold or less (selectivity level H)) |
| Cc1cccc2c1NC(=O)C2CCNc1ncc(C#N)c(N[C@@H]2CC[C@H](O)C(C)(C)C2)n1 (stereo partly drawn) [Cmpd 248] | < 0.1 | F (selectivity of between 20- and 100-fold (selectivity level F)) |
| CCc1ccc2c(c1)C(CCNc1ncc(C#N)c(N[C@@H]3CC[C@H](O)C(C)(C)C3)n1)C(=O)N2 (stereo partly drawn) [Cmpd 249] | < 0.1 | E (selectivity (Sel. Level=ratio of IC50 PKC-delta/IC50 PKC-theta) of >100-fold (selectivity level E)) |
| Cc1cccc(CCNc2ncc(C#N)c(N[C@@H]3CC[C@H](O)C(C)(C)C3)n2)n1 [Cmpd 250] | 0.8 to 2 | G (selectivity between 5- and 20-fold (selectivity level G)) |
| CC1(C)C[C@H](Nc2nc(NCCc3cc4cc(C#N)ccc4[nH]3)ncc2C#N)CC[C@@H]1O [Cmpd 251] | 0.1 to 0.8 | G (selectivity between 5- and 20-fold (selectivity level G)) |
| CC1(C)C[C@H](Nc2nc(NCCc3c[nH]c4cc(F)ccc34)ncc2C#N)CC[C@@H]1O [Cmpd 252] | < 0.1 | E (selectivity (Sel. Level=ratio of IC50 PKC-delta/IC50 PKC-theta) of >100-fold (selectivity level E)) |
| CC1(C)C[C@H](Nc2nc(NCCc3ccc(OCC(F)(F)F)nc3)ncc2C#N)CC[C@@H]1O [Cmpd 253] | 0.1 to 0.8 | F (selectivity of between 20- and 100-fold (selectivity level F)) |
| Cc1[nH]c2cc(Cl)cc(Cl)c2c1CCNc1ncc(C#N)c(N[C@@H]2CC[C@H](O)C(C)(C)C2)n1 [Cmpd 254] | 0.1 to 0.8 | G (selectivity between 5- and 20-fold (selectivity level G)) |
| CC1(C)CC(Nc2nc(NCCc3c[nH]c4cccnc34)ncc2C#N)CC[C@@H]1O (stereo partly drawn) [Cmpd 255] | 2 to 10 | H (selectivity level of 5-fold or less (selectivity level H)) |
| CC1(C)C[C@H](Nc2nc(NCCc3ccc4ccccc4n3)ncc2C#N)CC[C@@H]1O [Cmpd 256] | 0.8 to 2 | G (selectivity between 5- and 20-fold (selectivity level G)) |
| CCOc1cccc(CCNc2ncc(C#N)c(N[C@@H]3CC[C@H](O)C(C)(C)C3)n2)n1 [Cmpd 257] | 0.8 to 2 | G (selectivity between 5- and 20-fold (selectivity level G)) |
| Cc1ncccc1CCNc1ncc(C#N)c(N[C@@H]2CC[C@H](O)C(C)(C)C2)n1 [Cmpd 258] | 0.1 to 0.8 | F (selectivity of between 20- and 100-fold (selectivity level F)) |
| CC1(C)[C@@H](O)C[C@H]1Nc1nc(NCCC2C(=O)Nc3ccccc32)ncc1C#N (stereo partly drawn) [Cmpd 259] | < 0.1 | E (selectivity (Sel. Level=ratio of IC50 PKC-delta/IC50 PKC-theta) of >100-fold (selectivity level E)) |
